PubChem BioAssay (NCI)
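Interpolation was linear, between the two tested concentrations surrounding the appropriate level; five concentrations were tested over 48 hours in 96-well plates. GI50 is the concentration that inhibits growth by half. TGI is the concentration that stops growth completely.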

How the values were obtained:
Test in all cases: DTP human tumour cell line panel, 48 h
786-0 renal = tested on: 786-0 renal
A498 renal = tested on: A498 renal
A549 NSCLC = tested on: A549 NSCLC
ACHN renal = tested on: ACHN renal
BT-549 breast = tested on: BT-549 breast
CAKI-1 renal = tested on: CAKI-1 renal
CCRF-CEM leukemia = tested on: CCRF-CEM leukemia
COLO 205 colon = tested on: COLO 205 colon
DU-145 prostate = tested on: DU-145 prostate
EKVX NSCLC = tested on: EKVX NSCLC
HCC-2998 colon = tested on: HCC-2998 colon
HCT-116 colon = tested on: HCT-116 colon
HCT-15 colon = tested on: HCT-15 colon
HL-60(TB) leukemia = tested on: HL-60(TB) leukemia
HOP-62 NSCLC = tested on: HOP-62 NSCLC
HOP-92 NSCLC = tested on: HOP-92 NSCLC
HS 578T breast = tested on: HS 578T breast
HT29 colon = tested on: HT29 colon
IGROV1 ovarian = tested on: IGROV1 ovarian
K-562 leukemia = tested on: K-562 leukemia
KM12 colon = tested on: KM12 colon
LOX IMVI melanoma = tested on: LOX IMVI melanoma
M14 melanoma = tested on: M14 melanoma
MALME-3M melanoma = tested on: MALME-3M melanoma
MCF7 breast = tested on: MCF7 breast
MDA-MB-231 breast = tested on: MDA-MB-231 breast
MDA-MB-435 = tested on: MDA-MB-435
MOLT-4 leukemia = tested on: MOLT-4 leukemia
NCI-H226 lung = tested on: NCI-H226 lung
NCI-H23 lung = tested on: NCI-H23 lung
NCI-H460 lung = tested on: NCI-H460 lung
NCI-H522 lung = tested on: NCI-H522 lung
NCI/ADR-RES ovarian = tested on: NCI/ADR-RES ovarian
OVCAR-3 ovarian = tested on: OVCAR-3 ovarian
OVCAR-4 ovarian = tested on: OVCAR-4 ovarian
OVCAR-5 ovarian = tested on: OVCAR-5 ovarian
OVCAR-8 ovarian = tested on: OVCAR-8 ovarian
PC-3 prostate = tested on: PC-3 prostate
RPMI-8226 leukemia = tested on: RPMI-8226 leukemia
RXF 393 renal = tested on: RXF 393 renal
SF-268 CNS = tested on: SF-268 CNS
SF-295 CNS = tested on: SF-295 CNS
SF-539 CNS = tested on: SF-539 CNS
SK-MEL-2 melanoma = tested on: SK-MEL-2 melanoma
SK-MEL-28 melanoma = tested on: SK-MEL-28 melanoma
SK-MEL-5 melanoma = tested on: SK-MEL-5 melanoma
SK-OV-3 ovarian = tested on: SK-OV-3 ovarian
SN12C renal = tested on: SN12C renal
SNB-19 CNS = tested on: SNB-19 CNS
SNB-75 CNS = tested on: SNB-75 CNS
SR leukemia = tested on: SR leukemia
SW-620 colon = tested on: SW-620 colon
T-47D breast = tested on: T-47D breast
TK-10 renal = tested on: TK-10 renal
U251 CNS = tested on: U251 CNS
UACC-257 melanoma = tested on: UACC-257 melanoma
UACC-62 melanoma = tested on: UACC-62 melanoma
UO-31 renal = tested on: UO-31 renal

O=C(/C=C/c1ccccc1)Nc1ncc(Cc2ccccc2Cl)s1
GI50 (786-0 renal): 774 nM
TGI (786-0 renal): > 100000 nM
GI50 (A498 renal): 176 nM
TGI (A498 renal): 680 nM
GI50 (A549 NSCLC): 469 nM
TGI (A549 NSCLC): > 100000 nM
GI50 (ACHN renal): 612 nM
TGI (ACHN renal): > 100000 nM
GI50 (BT-549 breast): 945 nM
TGI (BT-549 breast): > 100000 nM
GI50 (CAKI-1 renal): 329 nM
TGI (CAKI-1 renal): > 100000 nM
GI50 (CCRF-CEM leukemia): 360 nM
TGI (CCRF-CEM leukemia): > 100000 nM
GI50 (COLO 205 colon): 366 nM
TGI (COLO 205 colon): > 100000 nM
GI50 (DU-145 prostate): 410 nM
TGI (DU-145 prostate): > 100000 nM
GI50 (EKVX NSCLC): 571 nM
TGI (EKVX NSCLC): > 100000 nM
GI50 (HCC-2998 colon): 361 nM
TGI (HCC-2998 colon): > 100000 nM
GI50 (HCT-116 colon): 375 nM
TGI (HCT-116 colon): > 100000 nM
GI50 (HCT-15 colon): 237 nM
TGI (HCT-15 colon): > 100000 nM
GI50 (HL-60(TB) leukemia): 285 nM
TGI (HL-60(TB) leukemia): 872 nM
GI50 (HOP-62 NSCLC): 505 nM
TGI (HOP-62 NSCLC): > 100000 nM
GI50 (HOP-92 NSCLC): 1260 nM
TGI (HOP-92 NSCLC): > 100000 nM
GI50 (HS 578T breast): 302 nM
TGI (HS 578T breast): > 24700 nM
GI50 (HT29 colon): 331 nM
TGI (HT29 colon): > 100000 nM
GI50 (IGROV1 ovarian): 477 nM
TGI (IGROV1 ovarian): > 100000 nM
GI50 (K-562 leukemia): 223 nM
TGI (K-562 leukemia): > 100000 nM
GI50 (KM12 colon): 288 nM
TGI (KM12 colon): > 100000 nM
GI50 (LOX IMVI melanoma): 426 nM
TGI (LOX IMVI melanoma): > 100000 nM
GI50 (M14 melanoma): 236 nM
TGI (M14 melanoma): > 100000 nM
GI50 (MALME-3M melanoma): 365 nM
TGI (MALME-3M melanoma): > 100000 nM
GI50 (MCF7 breast): 311 nM
TGI (MCF7 breast): > 100000 nM
GI50 (MDA-MB-231 breast): 668 nM
TGI (MDA-MB-231 breast): > 100000 nM
GI50 (MDA-MB-435): 97.2 nM
TGI (MDA-MB-435): 344 nM
GI50 (MOLT-4 leukemia): 459 nM
TGI (MOLT-4 leukemia): > 100000 nM
GI50 (NCI-H226 lung): 350 nM
TGI (NCI-H226 lung): > 100000 nM
GI50 (NCI-H23 lung): 708 nM
TGI (NCI-H23 lung): > 100000 nM
GI50 (NCI-H460 lung): 333 nM
TGI (NCI-H460 lung): > 100000 nM
GI50 (NCI-H522 lung): 474 nM
TGI (NCI-H522 lung): > 100000 nM
GI50 (NCI/ADR-RES ovarian): 325 nM
TGI (NCI/ADR-RES ovarian): > 100000 nM
GI50 (OVCAR-3 ovarian): 226 nM
TGI (OVCAR-3 ovarian): 630 nM
GI50 (OVCAR-4 ovarian): > 100000 nM
TGI (OVCAR-4 ovarian): > 100000 nM
GI50 (OVCAR-5 ovarian): 511 nM
TGI (OVCAR-5 ovarian): > 100000 nM
GI50 (OVCAR-8 ovarian): 509 nM
TGI (OVCAR-8 ovarian): > 100000 nM
GI50 (PC-3 prostate): 409 nM
TGI (PC-3 prostate): > 100000 nM
GI50 (RPMI-8226 leukemia): 335 nM
GI50 (RXF 393 renal): 223 nM
TGI (RXF 393 renal): 730 nM
GI50 (SF-268 CNS): 1800 nM
TGI (SF-268 CNS): > 100000 nM
GI50 (SF-295 CNS): 282 nM
TGI (SF-295 CNS): 11700 nM
GI50 (SF-539 CNS): 223 nM
TGI (SF-539 CNS): 634 nM
GI50 (SK-MEL-2 melanoma): 1250 nM
TGI (SK-MEL-2 melanoma): > 100000 nM
GI50 (SK-MEL-28 melanoma): 1500 nM
TGI (SK-MEL-28 melanoma): > 100000 nM
GI50 (SK-MEL-5 melanoma): 341 nM
GI50 (SK-OV-3 ovarian): 790 nM
TGI (SK-OV-3 ovarian): > 100000 nM
GI50 (SN12C renal): 623 nM
TGI (SN12C renal): > 100000 nM
GI50 (SNB-19 CNS): 404 nM
TGI (SNB-19 CNS): > 100000 nM
GI50 (SNB-75 CNS): 219 nM
TGI (SNB-75 CNS): 2160 nM
GI50 (SR leukemia): 153 nM
TGI (SR leukemia): > 100000 nM
GI50 (SW-620 colon): 413 nM
TGI (SW-620 colon): > 100000 nM
GI50 (T-47D breast): 513 nM
TGI (T-47D breast): > 100000 nM
GI50 (TK-10 renal): > 100000 nM
TGI (TK-10 renal): > 100000 nM
GI50 (U251 CNS): 397 nM
TGI (U251 CNS): > 100000 nM
GI50 (UACC-257 melanoma): > 100000 nM
TGI (UACC-257 melanoma): > 100000 nM
GI50 (UACC-62 melanoma): 326 nM
TGI (UACC-62 melanoma): > 100000 nM
GI50 (UO-31 renal): 614 nM
TGI (UO-31 renal): > 100000 nM
